SMILES strings stand for the structures.

Data set [1] deals with T1, alpha 2C (h) (antagonist radioligand) (Homo sapiens, UniProt P18825).
T1 sequence (P18825 1-462): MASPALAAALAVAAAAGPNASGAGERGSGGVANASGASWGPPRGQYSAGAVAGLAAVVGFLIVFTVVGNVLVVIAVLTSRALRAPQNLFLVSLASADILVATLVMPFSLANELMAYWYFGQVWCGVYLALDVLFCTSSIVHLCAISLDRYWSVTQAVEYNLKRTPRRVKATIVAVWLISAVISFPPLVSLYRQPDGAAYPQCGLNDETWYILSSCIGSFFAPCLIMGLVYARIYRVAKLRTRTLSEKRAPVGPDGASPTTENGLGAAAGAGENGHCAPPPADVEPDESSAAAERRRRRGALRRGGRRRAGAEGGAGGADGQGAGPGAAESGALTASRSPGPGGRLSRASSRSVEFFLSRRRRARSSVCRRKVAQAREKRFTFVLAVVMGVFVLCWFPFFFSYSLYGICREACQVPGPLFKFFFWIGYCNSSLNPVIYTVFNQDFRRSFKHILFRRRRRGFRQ
The data set can be described thus: Receptor protein binding studies, alpha 2C. From the text:
(§1) The four 3,11b trans-dihydrotetrabenazine isomers (+)-α, (−)-α, (+)-β and (−)-β were subjected to specific binding assays to test their ability to bind to the receptors and transporter proteins described below. The results are set out in Table 1

The target in data set [2] is T2, 5-HT1A(h) (agonist radioligand) (Homo sapiens, UniProt P08908).
T2 sequence (P08908 1-422): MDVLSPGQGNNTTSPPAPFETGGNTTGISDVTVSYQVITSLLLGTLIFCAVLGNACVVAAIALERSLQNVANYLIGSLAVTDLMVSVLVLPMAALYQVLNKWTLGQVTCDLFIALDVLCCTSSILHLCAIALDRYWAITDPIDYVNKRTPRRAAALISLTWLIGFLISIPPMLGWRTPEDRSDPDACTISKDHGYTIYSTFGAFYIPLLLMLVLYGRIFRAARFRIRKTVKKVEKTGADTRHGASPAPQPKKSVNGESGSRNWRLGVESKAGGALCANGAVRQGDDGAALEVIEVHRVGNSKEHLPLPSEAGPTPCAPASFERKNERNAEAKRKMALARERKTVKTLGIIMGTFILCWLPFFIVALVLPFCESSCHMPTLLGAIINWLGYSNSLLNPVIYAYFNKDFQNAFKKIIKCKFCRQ
Put plainly: Receptor protein binding studies, 5-HT1A.
Text: as §1

In data set [3] the test system is I2 (antagonist radioligand). Put plainly: Receptor protein binding studies, I2.
Text: as §1

Data set [4] addresses T3, alpha 2A (h) (antagonist radioligand) (Homo sapiens, UniProt P08913).
T3 sequence (P08913 1-465): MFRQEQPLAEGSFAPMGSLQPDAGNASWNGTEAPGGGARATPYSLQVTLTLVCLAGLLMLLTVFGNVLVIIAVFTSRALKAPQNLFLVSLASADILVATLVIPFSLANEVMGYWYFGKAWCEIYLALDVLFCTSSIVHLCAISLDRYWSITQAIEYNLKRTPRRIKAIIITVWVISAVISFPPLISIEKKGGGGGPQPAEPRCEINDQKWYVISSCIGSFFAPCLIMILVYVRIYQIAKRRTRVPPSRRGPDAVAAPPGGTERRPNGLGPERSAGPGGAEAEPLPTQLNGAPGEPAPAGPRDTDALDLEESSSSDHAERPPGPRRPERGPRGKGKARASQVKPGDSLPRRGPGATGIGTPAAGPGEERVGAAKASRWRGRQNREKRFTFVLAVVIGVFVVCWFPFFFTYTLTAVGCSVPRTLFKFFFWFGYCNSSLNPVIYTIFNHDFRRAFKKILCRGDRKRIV
Put plainly: Receptor protein binding studies, alpha 2A.
Text: as §1

Data set [5] concerns the target T4, D4.4 (h) (antagonist radioligand) (Homo sapiens, UniProt P21917).
T4 sequence (P21917 1-419): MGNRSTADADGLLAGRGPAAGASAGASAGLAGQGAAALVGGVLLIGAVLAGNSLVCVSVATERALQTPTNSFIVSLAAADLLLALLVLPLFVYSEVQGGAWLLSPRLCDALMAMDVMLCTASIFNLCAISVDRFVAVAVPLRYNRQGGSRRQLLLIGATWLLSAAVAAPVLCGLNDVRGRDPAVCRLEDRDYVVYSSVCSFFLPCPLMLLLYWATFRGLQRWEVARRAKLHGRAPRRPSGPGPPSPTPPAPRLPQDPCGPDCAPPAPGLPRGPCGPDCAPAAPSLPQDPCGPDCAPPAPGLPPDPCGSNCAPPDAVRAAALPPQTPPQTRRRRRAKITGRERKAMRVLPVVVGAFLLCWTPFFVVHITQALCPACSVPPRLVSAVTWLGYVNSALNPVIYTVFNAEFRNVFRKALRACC
Put plainly: Receptor protein binding studies, D4.4. Conditions: read-out: % Inhibition of specific binding.
Text: as §1

In data set [6] the target is hERG (membrane preparation) (antagonist radioligand) (Homo sapiens, UniProt Q12809). Put plainly: Receptor protein binding studies, hERG.
hERG (membrane preparation) (antagonist radioligand), sequence (Q12809 whole entry): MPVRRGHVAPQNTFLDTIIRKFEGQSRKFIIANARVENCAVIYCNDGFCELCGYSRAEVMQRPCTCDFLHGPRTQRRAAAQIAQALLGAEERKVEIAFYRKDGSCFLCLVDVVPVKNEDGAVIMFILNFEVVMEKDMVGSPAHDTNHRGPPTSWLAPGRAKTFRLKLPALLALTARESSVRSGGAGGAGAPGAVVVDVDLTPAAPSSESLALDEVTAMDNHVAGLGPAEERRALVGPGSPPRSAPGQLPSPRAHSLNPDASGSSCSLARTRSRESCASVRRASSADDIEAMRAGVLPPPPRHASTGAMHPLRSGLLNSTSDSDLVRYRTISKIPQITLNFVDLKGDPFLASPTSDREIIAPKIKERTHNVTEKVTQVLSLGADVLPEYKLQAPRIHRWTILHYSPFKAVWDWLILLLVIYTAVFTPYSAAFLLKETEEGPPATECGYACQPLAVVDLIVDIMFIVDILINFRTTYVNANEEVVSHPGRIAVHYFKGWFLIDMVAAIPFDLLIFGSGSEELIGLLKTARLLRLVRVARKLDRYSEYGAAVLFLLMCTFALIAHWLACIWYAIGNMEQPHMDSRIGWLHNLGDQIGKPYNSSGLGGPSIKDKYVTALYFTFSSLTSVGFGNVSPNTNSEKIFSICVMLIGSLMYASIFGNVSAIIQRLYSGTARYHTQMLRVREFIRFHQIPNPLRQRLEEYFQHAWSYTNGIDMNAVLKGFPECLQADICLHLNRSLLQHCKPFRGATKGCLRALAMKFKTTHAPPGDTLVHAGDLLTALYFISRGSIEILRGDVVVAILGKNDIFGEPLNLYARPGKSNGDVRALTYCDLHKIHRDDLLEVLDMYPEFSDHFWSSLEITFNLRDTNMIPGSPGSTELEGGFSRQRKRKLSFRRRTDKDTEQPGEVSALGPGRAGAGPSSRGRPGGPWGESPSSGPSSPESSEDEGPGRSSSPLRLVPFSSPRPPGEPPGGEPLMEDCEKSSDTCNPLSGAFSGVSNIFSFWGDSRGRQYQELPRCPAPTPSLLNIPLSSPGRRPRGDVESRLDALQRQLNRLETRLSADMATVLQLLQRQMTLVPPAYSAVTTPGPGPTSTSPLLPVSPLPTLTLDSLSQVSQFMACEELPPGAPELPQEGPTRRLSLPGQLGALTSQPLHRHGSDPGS
Text: as §1
(hERG is a cardiac potassium channel; its block is linked to QT prolongation.)

Data set [7] concerns the target 5-HT2B (h) (agonist radioligand) (Homo sapiens, UniProt P41595). The data set can be described thus: Receptor protein binding studies, 5-HT2B.
Text: as §1

5-HT2B (h) (agonist radioligand), sequence (P41595 whole entry): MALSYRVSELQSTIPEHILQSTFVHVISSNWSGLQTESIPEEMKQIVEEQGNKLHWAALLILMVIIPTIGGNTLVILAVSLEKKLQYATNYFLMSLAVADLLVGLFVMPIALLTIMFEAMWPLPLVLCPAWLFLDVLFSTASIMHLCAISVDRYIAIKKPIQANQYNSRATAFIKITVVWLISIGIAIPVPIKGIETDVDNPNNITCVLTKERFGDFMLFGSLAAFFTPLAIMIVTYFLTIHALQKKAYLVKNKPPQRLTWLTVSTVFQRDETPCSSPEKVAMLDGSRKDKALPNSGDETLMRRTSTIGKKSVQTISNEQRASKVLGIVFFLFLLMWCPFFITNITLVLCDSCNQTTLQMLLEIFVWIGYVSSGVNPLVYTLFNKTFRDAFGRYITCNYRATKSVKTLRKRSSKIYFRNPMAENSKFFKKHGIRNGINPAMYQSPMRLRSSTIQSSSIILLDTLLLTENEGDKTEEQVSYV

In general, inhibition refers to the drop in the measured response relative to a control, in per cent. Turning to `COc1cc2c(cc1OC)[C@@H]1C[C@@H](O)[C@@H](CC(C)C)CN1CC2` [(−)-Beta, (2S,3R,11bR)-3-isobutyl-9,10-dimethoxy-1,3,4,6,7,11b-hexahydro-2H-pyrido[2,1,a]isoquinolin-2-ol], in data set [1], the “activity at the alpha 2C receptor (in words)” value is recorded as “potent antagonists”. Moreover, the “activity at the 5-HT 1A receptor (in words)” value in data set [2] was “potent agonists”. In addition, the “% Inhibition of specific binding” value in data set [3] (CONC 1.0E−05 (unit not given)) was 37%; in data set [3] (CONC 1.0E−06 (unit not given)), 11%; in data set [6] (CONC 1.0E−05 (unit not given)), 64%; in data set [6] (CONC 1.0E−06 (unit not given)) it was −1%. The “activity at the alpha 2A receptor (in words)” value in data set [4] is recorded as “potent antagonists”. Moreover, the inhibition at 10 µM in data set [5] (CONC 1.0E−05 (unit inferred), 10 μM) worked out at 99%. In addition, the inhibition at 1 µM in data set [5] (CONC 1.0E−06 (unit inferred), 1 μM) was 87%. Also, the “activity at the 5-HT 2B receptor (in words)” value in data set [7] is given as “potent agonists”.

The values are drawn from patent US11065232B2, “Dihydrotetrabenazine for the treatment of anxiety and psychoses” (ADEPTIO PHARMACEUTICALS LIMITED, priority 2017, dated 2021).
